These results are taken from article PMC9505538, “P-Glycoprotein (MDR1/ABCB1) Restricts Brain Accumulation of the Novel EGFR Inhibitor EAI045 and Oral Elacridar Coadministration Enhances Its Brain Accumulation and Oral Exposure” (Pharmaceuticals, 2022).

On the set-up of data set [1]: method as in PMID 28288939, PMID 30253203, PMID 31175939, PMID 33459177, PMID 35400324. The conditions noted are these: reported; cited from earlier work.
For the next data set, the system named is human OATP1A2. On the set-up: method as in PMID 31770475. The conditions noted are these: cited from earlier work.
For data set [2] the following is noted: after oral administration; no reference given; cited from earlier work.
The conditions of data set [3]: mouse, in vivo. From the text:
(§1) Mice (Mus musculus) were bred in the Netherlands Cancer Institute and housed and handled according to institutional guidelines complying with Dutch and EU legislation. Animals used were WT, Abcb1a/1b^-/- [39], Abcg2^-/- [40], Abcb1a/1b;Abcg2^-/- [41], Cyp3a^-/- [42], and Oatp1a/1b^-/- [43] mice of a >99% FVB/N strain background. Homozygous CYP3A4 humanized transgenic mice (Cyp3aXAV) were generated by cross-breeding of transgenic mice with stable human CYP3A4 expression in the liver or intestine, respectively, in a Cyp3a^-/- background. Proper functionality of the knockout and transgenic strains was monitored by regular testing with a variety of drug substrates. All the mice used were between 10 and 15 weeks of age. Animals were kept in a temperature-controlled environment with a 12 h light/12 h dark cycle and received a standard diet (Transbreed, SDS Diets, Technilab-BMI, The Netherlands) and acidified water ad libitum. Depending on the type of experiment, 5 or 6 mice were tested in each experimental group. All experimental animal protocols, including power calculations, were ethically assessed and designed under the nationally approved DEC/CCD project AVD301002016595 (approval date, 10 August 2016) and evaluated and approved by the institutional animal care and use committee (IACUC) of the Netherlands Cancer Institute.
(§2) EAI045 was dissolved in dimethyl sulfoxide (DMSO) at a concentration of […], and then diluted with a mixture of polysorbate 80/ethanol (1:1, v/v), and further diluted with 5% (w/v) glucose in water to yield a concentration of 2 mg/mL. Final concentrations for DMSO, polysorbate 80, ethanol, and glucose in the dosing solution were 5%, 2.5%, 2.5%, and 4.5% (v/v/v/w), respectively. Elacridar hydrochloride was dissolved in DMSO at a concentration of 53 mg/mL, then diluted with a mixture of polysorbate 80, ethanol, and water [20:13:67, (v/v/v)] to yield a concentration of 5 mg/mL elacridar. The final oral dose of elacridar was 50 mg/kg body weight. All dosing solutions were prepared freshly on the day of experiment.
(§3) To minimize variation in absorption, mice were fasted for about 3 h before EAI045 was administered by gavage into the stomach (n = 5–6), using a blunt-ended needle. EAI045 was administered orally at dose of 20 mg/kg. Elacridar was administered orally at a dose of 50 mg/kg, 3 h prior to oral EAI045 administration. For the 24- or 4-h experiments, tail vein blood samplings were performed at 5 min, 30 min, 1, 2, 4, and 8 h, or 5 min, 15 min, 30 min, 1, and 2 h time points after oral administration of EAI045, respectively, using microvettes containing heparin. For the 30 min experiments, blood samplings were performed at 5, 10, and 20 min from the tail vein. At the last time point (24 h, 4 h, or 30 min), mice were anesthetized with isoflurane and blood was collected by cardiac puncture. Then, mice were sacrificed by cervical dislocation and brain, liver, spleen, kidneys, lung, small intestine with content (SIWC), and testis were rapidly removed and weighed. Tissues were homogenized on ice in appropriate volumes of 2% (w/v) BSA. Blood samples were centrifuged at 9000× g for 6 min at 4 °C immediately after collection. All samples were stored at −30 °C until analysis.

For data set [4] the following is noted: mouse, in vivo. How it is done: We subsequently analyzed the single and combined effects of Abcb1 and Abcg2 deficiencies on EAI045 plasma pharmacokinetics and tissue accumulation using male WT, Abcg2^-/-, Abcb1a/1b^-/-, and Abcb1a/1b;Abcg2^-/- mice. As we wanted to assess tissue concentrations while plasma concentrations were still relatively high; we terminated this experiment at 30 min.
as §1, §2, §3
The source holds these as a separate data set.

In data set [5] the test system is L858R/T790M EGFR mutant kinase. On the set-up: method as in PMID 27251290. The note with it: cited from earlier work.

As for `COc1cc(N2CCC(N3CCN(C)CC3)CC2)ccc1Nc1ncc(Cl)c(Nc2ccccc2P(C)(C)=O)n1` [brigatinib], the “increase in brain penetration in Abcb1a/1b;Abcg2-/- compared to WT mice” value (from here on “increase in brain penetration”) in data set [1] is 38 fold.

Turning to `CN(C)C/C=C/C(=O)Nc1cc2c(Nc3ccc(F)c(Cl)c3)ncnc2cc1O[C@H]1CCOC1` [afatinib], the “increase in brain penetration” value in data set [1] is listed as 28 fold.

For `COc1cc2c(cc1OC)CN(CCc1ccc(NC(=O)c3cccc4c(=O)c5cccc(OC)c5[nH]c34)cc1)CC2` [elacridar], the “inhibition of human OATP1A2” value in the data set with human OATP1A2 was “reported to inhibit”. In addition, the “time of peak plasma concentration” value in data set [2] is 3 to 4 h.

Take `O=C(O)C(c1cc(F)ccc1O)N1Cc2ccccc2C1=O` (stereo not shown) [PIA]: in data set [3], the “PIA brain-to-plasma ratio, fold increase” value is recorded as 3.3 fold; the “PIA kidney-to-plasma ratio, fold increase” value is given as 4.2 fold; the “PIA liver-to-plasma ratio, fold decrease” value was found to be 1.5 fold. Further, in data set [4], the “PIA SIWC%, fold decrease” value is on record as 1.8 fold; the “PIA SIWC%-to-plasma ratio, fold decrease” value turned out to be 2.7 fold; the “amount of PIA retrieved from SIWC, % of the EAI045 dose” value is recorded as ~ 0.3%. Besides, the “PIA oral AUC0–30min among the strains” value in data set [4] (po) was “no meaningful differences”. Besides, in data set [4] (po, 20 mg/kg), the “PIA/EAI045 AUC0–30min ratio” value is listed as 270-480% and the “PIA/EAI045 AUC ratio” value was “about 400%”. In addition, the PIA brain-to-plasma ratio in data set [4] (po, 20 mg/kg, 0.5 h) is 0.014.

For EAI001 [reference compound], the “potency against individual L858R and T790M mutants” value in data set [5] was “modest potency”.

For the compound `C=CC(=O)Nc1cc(Nc2nccc(-c3cn(C)c4ccccc34)n2)c(OC)cc1N(C)CCN(C)C` [osimertinib], the “increase in brain penetration” value in data set [1] is 6.4 fold.
